The results in this text go back to ChEMBL document CHEMBL5579847, “Synthesis, design, and optimization of a potent and selective series of pyridylpiperazines as promising antimalarial agents” (Eur J Med Chem, 2024).

In general, IC50 refers to the midpoint of a concentration-inhibition curve. A higher IC50 goes with a need for much substance. In general, inhibition refers to the relative decrease from the control value, in per cent. A word on the CC50: it is the concentration at which the toxic effect on the cells reaches its halfway point.

Data set [1] concerns Plasmodium falciparum. Briefly: Antimalarial activity against Plasmodium falciparum 3D7 infected in red blood cells after 96 hrs by SYBR Green I dye based fluorescence assay. Type of data set: functional, organism-based, Red blood cell. The following applies: 3D7, Erythrocyte.
A short description of data set [2]: Selectivity index, ratio of CC50 for cytotoxicity against human HepG2 cell to IC50 for antimalarial activity against Plasmodium falciparum 3D7 infected in red blood cells. The note with it: read-out: Ratio CC50/IC50. In kind it is toxicity, cell-based.
For data set [3], the target named is T1, Dihydroorotate dehydrogenase (quinone), mitochondrial (Plasmodium falciparum (isolate 3D7)) (UniProt Q08210).
T1 sequence (whole entry): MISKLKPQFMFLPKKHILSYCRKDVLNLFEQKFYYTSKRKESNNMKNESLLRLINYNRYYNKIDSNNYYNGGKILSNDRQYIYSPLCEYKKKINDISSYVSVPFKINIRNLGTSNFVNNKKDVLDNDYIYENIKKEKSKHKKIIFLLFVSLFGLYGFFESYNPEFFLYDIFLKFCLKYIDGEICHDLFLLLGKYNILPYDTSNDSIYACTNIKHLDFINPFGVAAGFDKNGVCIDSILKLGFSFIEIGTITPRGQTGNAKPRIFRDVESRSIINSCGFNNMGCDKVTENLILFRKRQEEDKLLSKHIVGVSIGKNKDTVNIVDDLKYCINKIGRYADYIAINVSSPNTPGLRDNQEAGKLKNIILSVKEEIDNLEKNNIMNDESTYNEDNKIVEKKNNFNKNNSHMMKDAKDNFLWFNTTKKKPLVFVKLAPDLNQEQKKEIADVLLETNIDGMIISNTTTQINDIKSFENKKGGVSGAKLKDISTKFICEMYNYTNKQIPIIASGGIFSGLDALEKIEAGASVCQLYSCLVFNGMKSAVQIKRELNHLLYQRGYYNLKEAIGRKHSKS
Nature of the data set: Inhibition of Plasmodium falciparum DHODH at 250 uM relative to control.

A short description of data set [4]: Selectivity index, ratio of CC50 for cytotoxicity against human HepG2 cell to IC50 for antimalarial activity against chloroquine-resistant Plasmodium falciparum Dd2 infected in red blood cells. Type of data set: toxicity, cell-based. The note with it: read-out: Ratio CC50/IC50.
Data set [5] relates to Plasmodium falciparum. Briefly: Antimalarial activity against chloroquine-resistant Plasmodium falciparum Dd2 infected in red blood cells after 96 hrs by SYBR Green I dye based fluorescence assay. Type of data set: functional, organism-based, Red blood cell. The following applies: Dd2, Erythrocyte.
A short description of data set [6]: Cytotoxicity against human HepG2 cells assessed as reduction in cell viability after 48 hrs by WST-1 assay. In kind it is toxicity, cell-based. For orientation: Tetrazolium dyes change colour on reduction, which living cells bring about.
In data set [7] the target is T1, Dihydroorotate dehydrogenase (quinone), mitochondrial (Plasmodium falciparum (isolate 3D7)). Briefly: Inhibition of Plasmodium falciparum DHODH.

SMILES strings stand for the structures. Active and inactive are the calls of the source. The rule behind the calls is not given here. Some results are limits rather than exact numbers.

`O=C(NC1CC1)c1ccc(N2CCN(C(=O)c3ccccn3)CC2)nc1` displayed an IC50 with Plasmodium falciparum [1] of more than 100 µM.

Turning to `O=C(NC1CC1)c1ccc(N2CCN(c3ccccc3C(F)(F)F)CC2)nc1`, the selectivity ratio in data set [2] was more than 59; in data set [4], more than 200. The inhibition in data set [3] came to 20%. Besides, the IC50 turned out to be 1.7 µM with Plasmodium falciparum [1] and 0.5 µM in the data set with Plasmodium falciparum [5]. For the same compound, in data set [6], the CC50 at 48 h was more than 100 µM. The inhibition result in data set [7] is “inactive”.

As to `COc1ccc(N2CCN(c3ccc(C(=O)NC4CC4)cn3)CC2)cc1`, the IC50 in the data set on Plasmodium falciparum [1] was 2.9 µM; with Plasmodium falciparum [5], 9.4 µM.

As to `COc1ccc(CN2CCN(c3ccc(C(=O)NC4CC4)cn3)CC2)cc1`, the selectivity ratio in data set [2] is more than 15; in data set [4] it was more than 8. Besides, the IC50 came out at 6.5 µM in the data set on Plasmodium falciparum [1] and 13 µM in the data set on Plasmodium falciparum [5]. Moreover, the CC50 at 48 h in data set [6] is more than 100 µM.

On to `O=C(NC1CC1)c1ccc(N2CCN(c3ccccc3Cl)CC2)nc1`, for which the IC50 in the data set with Plasmodium falciparum [1] was 0.4 µM; in the data set on Plasmodium falciparum [5], 0.7 µM.

`N#Cc1cccnc1N1CCN(c2ccc(C(=O)NC3CC3)cn2)CC1`: the results for the selectivity ratio in data set [2] and in data set [4] were more than 15 and more than 7, respectively. Besides, the IC50 in the data set with Plasmodium falciparum [1] is 6.7 µM; in the data set on Plasmodium falciparum [5], 15 µM. In data set [6], the half-maximal cytotoxic concentration (CC50) at 48 h is more than 100 µM.

On to `O=C(NC1CC1)c1ccc(N2CCN(c3cnccn3)CC2)nc1`, for which the figures for the selectivity ratio in data set [2] and in data set [4] were more than 36 and more than 28, respectively. The half-inhibitory concentration (IC50) turned out to be 2.8 µM in the data set with Plasmodium falciparum [1] and 3.6 µM in the data set on Plasmodium falciparum [5]. Besides, the CC50 at 48 h in data set [6] was more than 100 µM. Besides, the inhibition entry in data set [7] was “inactive”.

For `O=C(NC1CC1)c1ccc(N2CCN(c3ccc(C(F)(F)F)cn3)CC2)nc1`, the results for the IC50 in the data set on Plasmodium falciparum [1] and with Plasmodium falciparum [5] were 1.1 µM and 1.6 µM, respectively.

For `O=C(NC1CC1)c1ccc(N2CCN(c3ncccc3[N+](=O)[O-])CC2)nc1`, the selectivity ratio in data set [2] is 9; in data set [4], 5. For the same compound, the 50% inhibitory concentration (IC50) in the data set on Plasmodium falciparum [1] amounted to 5.7 µM; with Plasmodium falciparum [5], 10.2 µM. Moreover, the CC50 at 48 h in data set [6] was determined as 51.2 µM.

Turning to `O=C(NC1CC1)c1ccc(N2CCN(c3ccccc3)CC2)nc1`, the selectivity ratio was more than 21 in data set [2] and more than 30 in data set [4]. In addition, the figures for the IC50 in the data set on Plasmodium falciparum [1] and in the data set on Plasmodium falciparum [5] were 6 µM and 3.3 µM, respectively. The CC50 at 48 h in data set [6] is more than 100 µM.

Take `O=C(NC1CC1)c1ccc(N2CCN(c3ncccc3C(F)(F)F)CC2)nc1`: the selectivity ratio in data set [2] was more than 96; in data set [4] it was more than 23. The results for the IC50 in the data set with Plasmodium falciparum [1] and in the data set on Plasmodium falciparum [5] were 1 µM and 4.4 µM, respectively. Besides, the CC50 at 48 h in data set [6] was more than 100 µM. In addition, the inhibition result in data set [7] was “inactive”.

Take `O=C(NC1CC1)c1ccc(N2CCN(Cc3ccccc3)CC2)nc1`: the selectivity ratio in data set [2] worked out at 1; in data set [4], 2. The IC50 worked out at 10.9 µM with Plasmodium falciparum [1] and 6.1 µM in the data set on Plasmodium falciparum [5]. In addition, in data set [6], the CC50 at 48 h was determined as 12.1 µM.

`O=C(NC1CC1)c1ccc(N2CCNCC2)nc1`: the IC50 in the data set with Plasmodium falciparum [1] was more than 100 µM.

As for `O=C(NC1CC1)c1ccc(N2CCN(c3cccc(O)c3)CC2)nc1`, the selectivity ratio in data set [2] was 9; in data set [4] it was 5. Moreover, the values for the IC50 in the data set with Plasmodium falciparum [1] and with Plasmodium falciparum [5] were 4.1 µM and 7.3 µM, respectively. In addition, in data set [6], the CC50 at 48 h is 36.2 µM.

In turn, `O=C(NC1CC1)c1ccc(N2CCN(S(=O)(=O)c3ccccc3)CC2)nc1` came in with an IC50 in the data set on Plasmodium falciparum [1] of 37.2 µM.

On to `Cc1ccccc1N1CCN(c2ccc(C(=O)NC3CC3)cn2)CC1`, for which the figures for the selectivity ratio in data set [2] and in data set [4] were more than 100 and more than 143, respectively. The inhibition in data set [3] came to 30%. The IC50 was 1 µM in the data set on Plasmodium falciparum [1] and 0.7 µM in the data set on Plasmodium falciparum [5]. In addition, in data set [6], the CC50 at 48 h is more than 100 µM.

In the case of `CN1CCN(c2ccc(C(=O)NC3CC3)cn2)CC1`, the IC50 in the data set on Plasmodium falciparum [1] was more than 100 µM.

For `CCN(CC)CCCC(C)Nc1ccnc2cc(Cl)ccc12` (stereo unspecified) [CHLOROQUINE], the IC50 in the data set with Plasmodium falciparum [1] came out at 10.2 µM. In other words, the double-digit micromolar range.

Compound `O=C(NC1CC1)c1ccc(N2CCN(C(=O)c3ccccc3)CC2)nc1` had an IC50 with Plasmodium falciparum [1] of more than 100 µM.

As to `O=C(NC1CC1)c1ccc(N2CCN(c3ccccn3)CC2)nc1`, in data set [2], the selectivity ratio was more than 7. Besides, the midpoint of inhibition in the data set with Plasmodium falciparum [1], the IC50, lay at 13.9 µM. Besides, the CC50 at 48 h in data set [6] was more than 100 µM.

Consider `O=C(NC1CC1)c1ccc(N2CCN(c3ncccn3)CC2)nc1`, for which the IC50 in the data set on Plasmodium falciparum [1] worked out at 5.6 µM; in the data set on Plasmodium falciparum [5] it was 10.5 µM.

Turning to `O=C(NC1CC1)c1ccc(N2CCN(c3ccccc3F)CC2)nc1`, the results for the IC50 in the data set with Plasmodium falciparum [1] and with Plasmodium falciparum [5] were 1.3 µM and 2.3 µM, respectively. The inhibition entry in data set [7] is “inactive”.

In the data set on Plasmodium falciparum [1], `Nc1cccnc1N1CCN(c2ccc(C(=O)NC3CC3)cn2)CC1` yielded an IC50 of 46.4 µM.
